{"source": "patent US12338484B2", "about": "“FRET biosensor for detecting and reporting NAD+/NADH ratio changes” (Sartorius BioAnalytical Instruments, Inc., priority 2022, dated 2025)", "assay_type_in_all_cases": "biochemical", "key": {"[1]": {"target": "Thermus aquaticus T-Rex FRET biosensor construct #14 (Rex(A)-mEGFP-Rex(B)-mKOk, SEQ ID NO: 174), library variant 2-F3, SEQ ID NO: 15 (Thermus aquaticus, UniProt Q9X2V5, E116G/F189I/K117M/K47E/R46D/R58D/S30A/Y98W)", "assay": "Signal window in bacterial lysates, FRET ratio in presence or absence of 200 uM NADH (Table 2)", "conditions": "clone 2-F3, SEQ ID NO: 15", "source_text": "(§1) In specific embodiments, the fusion protein comprises the amino acid sequence selected from the group consisting of SEQ ID NO: 13-93, 95-154, and 191-193; the sequences are provided in Table 2 and the examples.\n(§2) Protein library DNA was generated following cloning that assembled pieces of DNA that were generated using PCRs with mixtures of primers. DNA was transformed into E. coli, and the first round of protein library expression was done in bacterial colonies on agar plates. The colonies, each expressing different library members, were imaged, and then classified into groups based on their FRET ratio signal. Colonies from different groups were inoculated into 96-deep-well plates for further protein expression in liquid culture. The original construct that was used to generate the library (e.g., construct #14 in Table 2) was also inoculated on the same plates, along with non-expressing bacteria. The latter served as a negative control."}, "[2]": {"target": "Thermus aquaticus T-Rex FRET biosensor construct #14 (Rex(A)-mEGFP-Rex(B)-mKOk, SEQ ID NO: 174), library variant 4-A2, SEQ ID NO: 19 (Thermus aquaticus, UniProt Q9X2V5, E116G/F189I/K117M/K47E/R46D/R58D/S30A/Y98W)", "assay": "Signal window in bacterial lysates, FRET ratio in presence or absence of 200 uM NADH (Table 2)", "conditions": "clone 4-A2, SEQ ID NO: 19", "source_text": "as §1, §2"}, "[3]": {"target": "Thermus aquaticus T-Rex FRET biosensor construct #14 (Rex(A)-mEGFP-Rex(B)-mKOk, SEQ ID NO: 174), library variant 4-F1, SEQ ID NO: 18 (Thermus aquaticus, UniProt Q9X2V5, E116G/F189I/K117M/K47E/R46D/R58D/S30A/Y98W)", "assay": "Signal window in bacterial lysates, FRET ratio in presence or absence of 200 uM NADH (Table 2)", "conditions": "clone 4-F1, SEQ ID NO: 18", "source_text": "as §1, §2"}, "[4]": {"target": "Thermus aquaticus T-Rex FRET biosensor construct #14 (Rex(A)-mEGFP-Rex(B)-mKOk, SEQ ID NO: 174), library variant 3-C8, SEQ ID NO: 14 (Thermus aquaticus, UniProt Q9X2V5, E116G/F189I/K117M/K47E/R46D/R58D/S30A/Y98W)", "assay": "Signal window in bacterial lysates, FRET ratio in presence or absence of 200 uM NADH (Table 2)", "conditions": "clone 3-C8, SEQ ID NO: 14", "source_text": "as §1, §2"}, "[5]": {"target": "Thermus aquaticus T-Rex FRET biosensor construct #14 (Rex(A)-mEGFP-Rex(B)-mKOk, SEQ ID NO: 174), library variant 1-A7, SEQ ID NO: 20 (Thermus aquaticus, UniProt Q9X2V5, E116G/F189I/K117M/K47E/R46D/R58D/S30A/Y98W)", "assay": "Signal window in bacterial lysates, FRET ratio in presence or absence of 200 uM NADH (Table 2)", "conditions": "clone 1-A7, SEQ ID NO: 20", "source_text": "as §1, §2"}, "[6]": {"target": "Thermus aquaticus T-Rex FRET biosensor construct #14 (Rex(A)-mEGFP-Rex(B)-mKOk, SEQ ID NO: 174), library variant 1-F8, SEQ ID NO: 13 (Thermus aquaticus, UniProt Q9X2V5, E116G/F189I/K117M/K47E/R46D/R58D/S30A/Y98W)", "assay": "Signal window in bacterial lysates, FRET ratio in presence or absence of 200 uM NADH (Table 2)", "conditions": "clone 1-F8, SEQ ID NO: 13", "source_text": "as §1, §2"}, "[7]": {"target": "Thermus aquaticus T-Rex FRET biosensor construct #14 (Rex(A)-mEGFP-Rex(B)-mKOk, SEQ ID NO: 174), library variant 4-D10, SEQ ID NO: 17 (Thermus aquaticus, UniProt Q9X2V5, E116G/F189I/K117M/K47E/R46D/R58D/S30A/Y98W)", "assay": "Signal window in bacterial lysates, FRET ratio in presence or absence of 200 uM NADH (Table 2)", "conditions": "clone 4-D10, SEQ ID NO: 17", "source_text": "as §1, §2"}, "[8]": {"target": "Thermus aquaticus T-Rex FRET biosensor construct #14 (Rex(A)-mEGFP-Rex(B)-mKOk, SEQ ID NO: 174), library variant 1-G8, SEQ ID NO: 16 (Thermus aquaticus, UniProt Q9X2V5, E116G/F189I/K117M/K47E/R46D/R58D/S30A/Y98W)", "assay": "Signal window in bacterial lysates, FRET ratio in presence or absence of 200 uM NADH (Table 2)", "conditions": "clone 1-G8, SEQ ID NO: 16", "source_text": "as §1, §2"}, "[9]": {"target": "T1, Thermus aquaticus T-Rex FRET fusion, initial construct #7, mKOk-Rex(78-211)-Rex(78-189)-cpmEGFP(173/174)-Rex(190-211), SEQ ID NO: 167 (Thermus aquaticus, UniProt Q9X2V5, INS189[…])", "T1 construct": "His-tag purified from E. coli", "assay": "FRET response (emission spectra) of purified initial construct #7 in absence or presence of 40 uM NADH", "set-up": "key: Good response: Constructs with very clear and robust spectra separation; Poor response: those with noticeable but small spectra separation; No response: those having no spectra separation", "protocol": "(§3) 16 initial FRET constructs (See Table 3) were constructed using expression vector pET28c with a T7 promoter and lac operator and expressed in E. coli. Cells were collected and lysed using a commercially-available lysis buffer. Proteins of interest were isolated from the lysates using Ni-NTA magnetic beads. Eluted proteins were subjected to buffer exchange and final protein concentrating. To test performance of the initial FRET constructs, their emission spectra was recorded on a plate reader in absence or presence of 40 uM NADH. Resulting emission spectra with or without the ligand were normalized and overlaid for each construct. Constructs with very clear and robust spectra separation were labeled as having “good response”, those with noticeable but small spectra separation were labeled as having “poor response”, and finally those having no spectra separation were labeled as having “no response”."}, "[10]": {"target": "T2, Thermus aquaticus T-Rex FRET fusion, initial construct #8, Rex(78-211)-Rex(78-189)-cpmEGFP(173/174)-Rex(190-211)-mKOk, SEQ ID NO: 168 (Thermus aquaticus, UniProt Q9X2V5, INS189[…])", "T2 construct": "His-tag purified from E. coli", "assay": "FRET response (emission spectra) of purified initial construct #8 in absence or presence of 40 uM NADH", "set-up": "key: Good response: Constructs with very clear and robust spectra separation; Poor response: those with noticeable but small spectra separation; No response: those having no spectra separation", "protocol": "as §3"}, "[11]": {"target": "T3, Thermus aquaticus T-Rex FRET fusion, initial construct #2, Rex(78-189)-cpmEGFP(145/146)-Rex(190-211)-Rex(78-211)-mKOk, SEQ ID NO: 162 (Thermus aquaticus, UniProt Q9X2V5, INS189[…])", "T3 construct": "His-tag purified from E. coli", "assay": "FRET response (emission spectra) of purified initial construct #2 in absence or presence of 40 uM NADH", "set-up": "key: Good response: Constructs with very clear and robust spectra separation; Poor response: those with noticeable but small spectra separation; No response: those having no spectra separation", "protocol": "as §3"}}, "data": [{"smiles": "NC(=O)C1=CN([C@@H]2O[C@H](COP(=O)(O)OP(=O)(O)OC[C@H]3O[C@@H](n4cnc5c(N)ncnc54)[C@H](O)[C@@H]3O)[C@@H](O)[C@H]2O)C=CC1", "note": "[NADH]", "values": [{"measurement": "Signal window (ex mode), measured in lysates", "setting": "[1]", "value": 0.34}, {"measurement": "Signal window (ex mode), measured in lysates", "setting": "[2]", "value": 0.32}, {"measurement": "Signal window (ex mode), measured in lysates", "setting": "[3]", "value": 0.33}, {"measurement": "Signal window (ex mode), measured in lysates", "setting": "[4]", "value": 0.4}, {"measurement": "Signal window (ex mode), measured in lysates", "setting": "[5]", "value": 0.31}, {"measurement": "Signal window (ex mode), measured in lysates", "setting": "[6]", "value": 0.55}, {"measurement": "Signal window (ex mode), measured in lysates", "setting": "[7]", "value": 0.34}, {"measurement": "Signal window (ex mode), measured in lysates", "setting": "[8]", "value": 0.34}, {"measurement": "FRET response to NADH", "setting": "[9]", "value": "No response"}, {"measurement": "FRET response to NADH", "setting": "[10]", "value": "No response"}, {"measurement": "FRET response to NADH", "setting": "[11]", "value": "Poor response"}]}]}
